According to patent US20180193336A1, “SPRAY DRY FORMULATIONS” (Pulmokine, Inc., priority 2013, published 2018):
Values joined by “and” are separate entries in the source; they are usually repeats but may differ in a detail not shown here. Equal values may be shown once. Read-outs that look alike come from different tables or passages of the source. Marks after values point to notes of the source that are not given here.

How the values were obtained:
[1] = system: PDGFAA stimulated AKT phosphorylation; assay: In cell Western, PDGFAA stimulated AKT phosphorylation in human fetal lung fibroblasts; format: cell-based; conditions: for IC50: Fibroblast
Method: HLFs were maintained in subculture at no more than 6 passages in DMEM with 5% FBS and 4 mM Glutamax at 37° C., 5% CO2. HLFs were plated and grown to 70-80% confluence in 96 well plates then serum-starved for 48 hours. […] Antibodies were detected using IRDye 680LT goat anti-mouse IgG and IRDye 800 W goat α-rabbit IgG conjugated antibodies. After washing, the signal was quantified using an Odyssey Infrared Imaging System (LI-COR). Phosphoprotein signal (800 nm) was normalized to total protein signal (700 nm) acquired from each well and experimental duplicates on same plate were averaged and reported.

[2] = Systemic blood pressure study in ambulatory MCT treated rats; format: in vivo, rat
Method: The effect of PK10453 (Structure 2) on systemic BP was studied in ambulatory MCT treated rats with DSI PAC40 transmitters implanted in the descending aorta. […] Blood pressure was recorded before each morning dose.

rat MCT+PN model [3] = assay: RV pressure, PV loops and RV hypertrophy in rat MCT+PN model; format: in vivo; conditions: for RV systolic pressure: 14 days
Method: In a separate cohort of animals, the MCT+PN model was developed as described above, and PK10453 (Structure 2) was then administered for 4 or 8 min three times a day to the drug treated group. The vehicle control group underwent 4 min exposures three times a day. Pressure Volume (PV) loops were obtained with an admittance system (Scisense, Inc.) after 14 days of treatment, while rats were under general anesthesia with isoflurane and 100% FiO2. Also, or in the alternative, RV pressures were obtained in each group after 14 days of treatment. In a subset of each group, pressure Volume (PV) loops were obtained with an admittance system (high fidelity catheter FTE1918B, Scisense, Inc.) after 14 days of treatment. After induction of general anesthesia and intubation via tracheostomy, the rats were placed on a pressure controlled ventilator (TOPOVENT). General anesthesia consisted of isoflurane and 100% F1O2 with peak inspiratory pressure set at 18 cm, and PEEP 5 cm H2O. A left thoracotomy was performed with admittance catheter in the RV via the RV outflow tract.
At the end of the study, the heart and lungs were removed from ventilated animals under general anesthesia. Heparinized saline was infused under pressure through the main pulmonary artery. The right upper lobe was immediately tied off and placed in liquid nitrogen for Western blot and NanoPro 100 assay analysis. The heart was removed, and the RV free wall, interventricular septum and LV free wall dissected and weighed. Buffered formalin (10%) was infused under pressure both through the pulmonary artery and the trachea. Morphometric analysis was performed on H&E stained formalin fixed tissue sectioned at 8 μm. The media area and lumen area of pulmonary arterioles were measured with Image J software by a technician blinded to treatment group. Measurements were made on 20 pulmonary arterioles per section. The ratio of the lumen area to the total media area was determined. This ratio normalizes the variation in total pulmonary arteriole area. In addition, occlusive analysis was performed in the monocrotaline plus pneumonectomy study (specifically efficacy study 5) according to the method of Homma et al., “Involvement of RhoA/Rho kinase signaling in protection against monocrotaline-induced pulmonary hypertension in pneumonectomized rats by dehydroepiandrosterone.” Am J Physiol Lung Cell Mol Physiol. Vol. 295:L71-8 (2008). Briefly, pre-capillary arterioles were assigned grade 0 for no evidence of neointimal lesions, grade 1 for less than 50% luminal occlusion, and grade 2 for greater than 50% occlusion. Masson Trichrome stains were performed on lung sections from the MCT+PN model. […]

rat MCT+PN model [4] = assay: Telemetry of pulmonary artery pressure in rat MCT+PN model; format: in vivo; conditions: for PA systolic pressure: separate MCT+PN telemetry study
Method: Pneumonectomy and implantation of a TRM53P telemetry monitor in the pulmonary artery (Telemetry Research, New Zealand and ADInstruments, Colorado) was carried out in rats. Two weeks after MCT, PK10453 (Structure 2) was administered three times daily for 1 week. […] The two groups underwent 4 min exposures of either the vehicle control or PK10453 (Structure 2). Sampling of PA pressure was performed 5 min before each morning dose in ambulatory animals in room air (estimated atmospheric pressure 716 mm Hg based on elevation of animal facility). […] Telemetry data was obtained for 10 min daily before each morning dose for this protocol.

rat MCT+PN model [5] = assay: Two-chamber plethysmography, PK10453 in rat MCT+PN model; format: in vivo; conditions: for MV (minute ventilation) / PEF (peak expiratory flow) / PIF (peak inspiratory flow) / SRaw (airway resistance) / TV (tidal volume) / f (breathing frequency): MCT+PN, mean
Method: Plethysmography was performed with an EMKA dual chamber plethysmograph and IOX software. Parameters measured included breathing frequency, tidal volume, minute ventilation, peak inspiratory and expiratory flow, and airway resistance (SRaw). Animals were acclimatized to the plethysmograph for three days prior to first data acquisition. Measurements were made prior to the first dose of drug and at the end of the study.

[6] = 8 min inhalation three times a day, two weeks

Method for rat MCT model: At the end of the study RVSP pressure was measured; lung and heart fixed in formalin. For measurement of RVSP animals were sedated with isoflurane, intubated via a tracheostomy, and ventilated with a TOPOVENT pressure regulated ventilator (peak inspiratory pressure 18 cm H20, PEEP 5 cm). After sternotomy, a Scisense high fidelity catheter inserted via the RV apex.
At the end of the study, the heart and lungs were removed from ventilated animals under general anesthesia. Heparinized saline was infused under pressure through the main pulmonary artery. […] The heart was removed, and the RV free wall, interventricular septum and LV free wall dissected and weighed. Buffered formalin (10%) was infused under pressure both through the pulmonary artery and the trachea. Morphometric analysis was performed on H&E stained formalin fixed tissue sectioned at 8 μm. The media area and lumen area of pulmonary arterioles were measured with Image J software by a technician blinded to treatment group. Measurements were made on 20 pulmonary arterioles per section. The ratio of the lumen area to the total media area was determined. This ratio normalizes the variation in total pulmonary arteriole area. […] Briefly, pre-capillary arterioles were assigned grade 0 for no evidence of neointimal lesions, grade 1 for less than 50% luminal occlusion, and grade 2 for greater than 50% occlusion.

SMILES: COc1cc(-c2cncc(N[C@@H](C)c3cccc(NC(=O)c4cncc(C)c4)c3)n2)ccc1O [PK10453, (S)—N-(3-(1-((6-(4-hydroxy-β-methoxyphenyl)pyrazin-2yl)amino)ethyl)phenyl)-5-methylnicotinamide]
- IC50 for PDGFAA stimulated phosphorylation of AKT, PK10453 compared with imatinib [1]: not significantly different
- IC50 ([1]; legend of FIG. 2 PANEL A, read-out: IC50 for PDGFAA stimulation of pAKT(S473)): 300 to 600 nM
- IC50 ([1]; legend of FIG. 2 PANEL B, read-out: IC50 for PDGFAA stimulation of pAKT(T308)): 300 to 600 nM
- systolic BP ([2]; MCT rats, day seven of treatment, 4 min exposure 3×/d): 131±10 mmHg
- effect on systemic BP ([2]; rat MCT model): did not have an adverse effect
- (RV+IVS)/LV ratio (rat MCT+PN model [3]; D4): 0.62±0.04
- RV systolic pressure (rat MCT+PN model [3]; D4, 4 min three times a day): 40.4±2.7 mm Hg and 40.4+2.7 mm Hg
- (RV+IVS)/LV ratio (rat MCT+PN model [3]; D8): 0.68±0.05
- RV systolic pressure (rat MCT+PN model [3]; D8, 8 min three times a day): 43±3.0 mm Hg and 43.0+3.0 mm Hg
- efficacy by inhalation in the MCT+PN model (rat MCT+PN model [4]; rat MCT+PN): effective in lowering pulmonary pressures
- PA systolic pressure (rat MCT+PN model [4]; after five days of treatment): 47.2±3.0 mm Hg
- PA systolic pressure (rat MCT+PN model [4]; treatment day 9): 50.5±7 mm Hg
- end diastolic volume, ejection fraction, cardiac output, stroke work, difference between groups (rat MCT model): no significant differences
- Lumen/Media ratio (rat MCT model; 8 min exposures): 0.94±0.08
- End systolic volume (rat MCT model; [6]): 99.5 µL
- RV end systolic pressure (rat MCT model; [6]): 36.3±2.6 mm Hg
- MV (minute ventilation) (rat MCT+PN model [5]; D4, Day 1): 223.24 mL/min
- PEF (peak expiratory flow) (rat MCT+PN model [5]; D4, Day 1): 11.04
- PIF (peak inspiratory flow) (rat MCT+PN model [5]; D4, Day 1): 9.82
- SRaw (airway resistance) (rat MCT+PN model [5]; D4, Day 1): 39.73
- TV (tidal volume) (rat MCT+PN model [5]; D4, Day 1): 1.00 mL
- f (breathing frequency) (rat MCT+PN model [5]; D4, Day 1): 224.68 breaths per minute
- MV (minute ventilation) (rat MCT+PN model [5]; D4, Day 15): 176.12§ mL/min
- PEF (peak expiratory flow) (rat MCT+PN model [5]; D4, Day 15): 9.33*
- PIF (peak inspiratory flow) (rat MCT+PN model [5]; D4, Day 15): 7.82*
- SRaw (airway resistance) (rat MCT+PN model [5]; D4, Day 15): 33.09
- TV (tidal volume) (rat MCT+PN model [5]; D4, Day 15): 0.85 mL
- f (breathing frequency) (rat MCT+PN model [5]; D4, Day 15): 217.12 breaths per minute
- MV (minute ventilation) (rat MCT+PN model [5]; D8, Day 1): 174.68 mL/min
- PEF (peak expiratory flow) (rat MCT+PN model [5]; D8, Day 1): 9.43
- PIF (peak inspiratory flow) (rat MCT+PN model [5]; D8, Day 1): 8.54
- SRaw (airway resistance) (rat MCT+PN model [5]; D8, Day 1): 36.01
- TV (tidal volume) (rat MCT+PN model [5]; D8, Day 1): 0.74 mL
- f (breathing frequency) (rat MCT+PN model [5]; D8, Day 1): 259.13 breaths per minute
- MV (minute ventilation) (rat MCT+PN model [5]; D8, Day 15): 128.49 mL/min
- PEF (peak expiratory flow) (rat MCT+PN model [5]; D8, Day 15): 6.64
- PIF (peak inspiratory flow) (rat MCT+PN model [5]; D8, Day 15): 6.06
- SRaw (airway resistance) (rat MCT+PN model [5]; D8, Day 15): 49.26
- TV (tidal volume) (rat MCT+PN model [5]; D8, Day 15): 0.63 mL
- f (breathing frequency) (rat MCT+PN model [5]; D8, Day 15): 232.11 breaths per minute
- effect on lung function (rat MCT+PN model [5]; inhaled, 2-wk course): did not adversely affect lung function
